Test results: patent US7074824B2, “Pharmaceutical compositions containing beta-lapachone, or derivatives or analogs thereof, and methods of using same” (Arqule, Inc., priority 2001, dated 2006)

Legend:
A2780DDP = settings: stated as typical value, read-out: IC50 concentration; cited from earlier work
human carcinoma cells = test: Colony formation assay of β-lapachone combined with Taxol®; format: cell-based; settings: 4 h exposure, colonies scored after 10–20 days; ovarian, breast, prostate, melanoma, lung and pancreatic cell lines, FIG. 4
Procedure: In these studies, exponentially growing cells were seeded at 1,000 cells per well in six-well plates and allowed to attach for 48 h. β-lapachone and/or Taxol®, solubilized in DMSO, were added to the wells. Control wells were treated with equivalent volumes of DMSO. After 4 h cells were rinsed and fresh medium was added. Cultures were observed daily for 10–20 days and then were fixed and stained. Colonies of greater than 30 cells were scored as survivors.

[1] = test system: Human ovarian cancer cells (36M2); test: Human ovarian cancer xenograft model, β-lapachone in Lipiodol and Taxol®; format: in vivo, athymic female nude mice; settings: i.p., 10 cycles
Procedure: Human ovarian cancer cells (36M2, originally isolated from malignant ascites) were inoculated by i.p. injection into athymic female nude mice 24 h after irradiation. In this model, metastatic foci form approximately 1 week after inoculation, and tumor nodules of the peritoneum and malignant ascites develop in 4–5 weeks. Ten days after tumor inoculation (10×10^6 cells), treatment regimens were initiated. The control group was treated with vehicle alone. In each typical treatment cycle, the β-lapachone alone group was treated with 25–50 mg/kg i.p. of β-lapachone in Lipiodol solution and the Taxol® alone group was treated at 1 mg/kg i.p. (Taxol® formulation diluted in Lipiodol), both followed 24 h later by i.p. injection of vehicle. In the combination group, nude mice were treated with β-lapachone at 25–50 mg/kg, followed 24 h later by Taxol® at 1 mg/kg. All groups were treated for 10 cycles, with a 1-day break between each cycle. […] Host toxicity was evaluated by general appearance and body weight.

Compound | IC50 (A2780DDP) | inhibition of cancer cell survival (colony formation) (human carcinoma cells) | decrease in tumor number versus control ([1]; assessed day 50, β-lapachone 25–50 mg/kg in Lipiodol, Taxol® 1 mg/kg) | size of the tumor nodules and amount of ascites ([1]; laparotomy at day 50)
N.N.[Cl][Pt][Cl] [cisplatin] | > 100 µM | – | – | –
CC(=O)O[C@H]1C(=O)[C@@]2(C)[C@H]([C@H](OC(=O)c3ccccc3)[C@]3(O)C[C@H](OC(=O)[C@H](O)[C@@H](NC(=O)c4ccccc4)c4ccccc4)C(C)=C1C3(C)C)[C@]1(OC(C)=O)CO[C@@H]1C[C@@H]2O [Taxol®, paclitaxel, reference compound] | – | much less effective | ~60% | considerable reduction in the size of the tumor nodules and the amount of ascites
